Assay results from US20250107528A1, “PYRAZINE COMPOUNDS FOR THE CONTROL OF INVERTEBRATE PESTS” (BASF SE, priority 2021, published 2025).
Read-outs that look alike come from different tables or passages of the source.

Key:
Format in all cases: in vivo
[1] = tested on: Aedes aegypti; experiment: whole plant or invertebrate; settings: 48 h, larval mortality, 2 days, read-out: mortality in comparison with untreated controls
Protocol: B.5 Yellow Fever Mosquito (Aedes aegypti)
For evaluating control of yellow fever mosquito (Aedes aegypti) the test unit consisted of 96-well-microtiter plates containing 200 μl of tap water per well and 5-15 freshly hatched A. aegypti larvae.
The active compounds were formulated using a solution containing 75% (v/v) water and 25% (v/v) DMSO. Different concentrations of formulated compounds or mixtures were sprayed onto the insect diet at 2.5 μl, using a custom-built micro atomizer, at two replications.
After application, microtiter plates were incubated at 28±1° C., 80±5% RH for 2 days. Larval mortality was then visually assessed.

[2] = tested on: Myzus persicae; experiment: Green peach aphid (Myzus persicae) systemic test, artificial diet in 96-well microtiter plates; settings: 72 h, read-out: mortality in comparison with untreated controls
Protocol: If not otherwise specified, the test solutions were prepared as follow:
The active compound was dissolved at the desired concentration in a mixture of 1:1 (vol:vol) distilled water:acetone. The test solution was prepared on the day of use.
B.1 Green Peach Aphid (Myzus persicae)
For evaluating control of green peach aphid (Myzus persicae) through systemic means, the test unit consisted of 96-well-microtiter plates containing liquid artificial diet under an artificial mem brane.
The compounds were formulated using a solution containing 75% v/v water and 25% v/v DMSO. Different concentrations of formulated compounds were pipetted into the aphid diet, using a custom built pipetter, at two replications.
After application, 5-8 adult aphids were placed on the artificial membrane inside the microtiter plate wells. The aphids were then allowed to suck on the treated aphid diet and incubated at about 23±1° C. and about 50±5% relative humidity for 3 days. Aphid mortality and fecundity was then visually assessed.

[3] = tested on: Anthonomus grandis; experiment: Boll weevil (Anthonomus grandis) egg/larval test on insect diet in 96-well microtiter plates; settings: 120 h, read-out: mortality in comparison with untreated controls
Protocol: B.3 Boll Weevil (Anthonomus grandis)
For evaluating control of boll weevil (Anthonomus grandis), the test unit consisted of 96-well-microtiter plates containing an insect diet and 5-10 A. grandis eggs.
The compounds were formulated using a solution containing 75% v/v water and 25% v/v DMSO. Different concentrations of formulated compounds were sprayed onto the insect diet at 5 μl, using a custom-built micro atomizer, at two replications.
After application, microtiter plates were incubated at about 25±1° C. and about 75±5% relative humidity for 5 days. Egg and larval mortality was then visually assessed.

[4] = tested on: Heliothis virescens; experiment: Tobacco budworm (Heliothis virescens) egg/larval test on insect diet in 96-well microtiter plates; settings: 120 h, read-out: mortality in comparison with untreated controls
Protocol: B.2 Tobacco Budworm (Heliothis virescens)
For evaluating control of tobacco budworm (Heliothis virescens), the test unit consisted of 96-well-microtiter plates containing an insect diet and 15-25 H. virescens eggs.
The compounds were formulated using a solution containing 75% v/v water and 25% v/v DMSO. Different concentrations of formulated compounds were sprayed onto the insect diet at 10 μl, using a custom-built micro atomizer, at two replications.
After application, microtiter plates were incubated at about 28±1° C. and about 80±5% relative humidity for 5 days. Egg and larval mortality was then visually assessed.

[5] = tested on: Spodoptera eridania; experiment: Southern armyworm (Spodoptera eridania), 2nd instar larvae, foliar spray on lima bean plants; settings: 96 h, 2nd instar larvae on sprayed lima bean, 4 days after treatment, read-out: mortality in comparison with untreated controls
Protocol: B.4. Southern Armyworm (Spodoptera eridania), 2nd Instar Larvae
The active compounds were formulated by a Tecan liquid handler in 100% cyclohexanone as a 10,000-ppm solution supplied in tubes. The 10,000-ppm solution was serially diluted in 100% cyclohexanone to make interim solutions. These served as stock solutions for which final dilutions were made by the Tecan in 50% acetone:50% water (v/v) into 10 or 20 ml glass vials. A non-ionic surfactant (Kinetic®) was included in the solution at a volume of 0.01% (v/v). The vials were then inserted into an automated electrostatic sprayer equipped with an atomizing nozzle for application to plants/insects. Lima bean plants (variety Sieva) were grown 2 plants to a pot and selected for treatment at the 1st true leaf stage. Test solutions were sprayed onto the foliage by an auto-mated electrostatic plant sprayer equipped with an atomizing spray nozzle. The plants were dried in the sprayer fume hood and then removed from the sprayer. Each pot was placed into perforated plastic bags with a zip closure. Ten to 11 armyworm larvae were placed into the bag and the bags zipped closed. Test plants were maintained in a growth room at about 25° C. and about 20-40% relative humidity for 4 days, avoiding direct exposure to fluorescent light (14:10 light:dark photoperiod) to prevent trapping of heat inside the bags. Mortality and reduced feeding were assessed 4 days after treatment, compared to untreated control plants.

[6] = 2500 ppm, egg and larval mortality, 5 days
[7] = 2500 ppm, adult aphids on treated artificial diet, 3 days

CCN(C)C(=NO)c1nccnc1C(C)NC(=O)c1cc(C(F)(F)F)cc(C(F)(F)F)c1 (stereo not shown) [I-170, N-[1-[3-(N-ethyl-N′-hydroxy-N-methyl-carbamimidoyl)pyrazin-2-yl]ethyl]-3,5-bis(trifluoromethyl)benzamide]
≥ 75%: mortality at 2500 ppm [1] | mortality at 2500 ppm [2] | mortality at 2500 ppm [3] | mortality at 2500 ppm [4]

CON=C(C)c1nccnc1C(C)N(CC1CC1)C(=O)c1cc(Cl)cc(S(=O)(=O)c2ccc(F)cc2)c1 (stereo not shown) [I-17, 3-chloro-N-(cyclopropylmethyl)-5-(4-fluorophenyl)sulfonyl-N-[1-[3-(N-methoxy-C-methyl-carbonimidoyl)pyrazin-2-yl]ethyl]benzamide]
≥ 75%: mortality at 2500 ppm [1] | mortality at 300 ppm [5] | mortality at 2500 ppm [3, 6]

CON=C(C)c1nccnc1C(C)N(CC1CC1)C(=O)c1cc(C(F)(F)F)cc(C2(C#N)CC2)c1 (stereo not shown) [I-9, 3-(1-cyanocyclopropyl)-N-(cyclopropylmethyl)-N-[1-[3-(N-methoxy-C-methyl-carbonimidoyl)pyrazin-2-yl]ethyl]-5-(trifluoromethyl)benzamide]
≥ 75%: mortality at 2500 ppm [1] | mortality at 300 ppm [5] | mortality at 2500 ppm [2, 7]

CC(NC(=O)c1cc(C(F)(F)F)cc(C(F)(F)F)c1)c1nccnc1C(N)=NO (stereo not shown) [I-3, N-[1-[3-[N′-hydroxycarbamimidoyl]pyrazin-2-yl]ethyl]-3,5-bis(trifluoromethyl)benzamide]
≥ 75%: mortality at 2500 ppm [1] | mortality at 2500 ppm [2, 7] | mortality at 2500 ppm [3, 6] | mortality at 2500 ppm [4, 6]

CON=C(N)c1nccnc1C(C)NC(=O)c1cc(C(F)(F)F)cc(C(F)(F)F)c1 (stereo not shown) [I-5, N-[1-[3-[N′-methoxycarbamimidoyl]pyrazin-2-yl]ethyl]-3,5-bis(trifluoromethyl)benzamide]
≥ 75%: mortality at 2500 ppm [1] | mortality at 300 ppm [5] | mortality at 2500 ppm [2, 7] | mortality at 2500 ppm [3, 6] | mortality at 2500 ppm [4, 6]
